Source: patent US9409952B2, “Peptide-compound cyclization method” (Chugai Seiyaku Kabushiki Kaisha, priority 2011, dated 2016)
Starred links: 1 amine or outer side, 2 acyl side, 3 side chain; linkers in the order of their positions; H or OH if unused. Positions of bridges follow the written chain, without caps; N, C: chain ends. Non-standard residues stand in square brackets, D forms with d. Residues, ends and D or L forms follow the SMILES beside them. *: point of attachment. NMeF = CN[C@@H](Cc1ccccc1)C(=O)O; NMeI = CC[C@H](C)[C@H](NC)C(=O)O; NMeβAla = CN(CCC(=O)[*:2])[*:1]; NMeL = CN[C@@H](CC(C)C)C(=O)O; NMeV = CN[C@H](C(=O)O)C(C)C; NMeA = CN[C@@H](C)C(=O)O; Piperidide = C1CCN(*)CC1; dNMeA = CN[C@H](C)C(=O)O

Experiment: PAMPA (parallel artificial membrane permeability assay)
Type: in vitro ADME
Conditions: PAMPA; membrane permeation rate (Pe); 50 mM MOPSO buffer pH 6.5 with 5.0% glycocholic acid, 37° C., 18 hours; read-out: iPAMPA Pe
Method: 4 μL of a phospholipid-organic solvent solution composed of 10% (w/v) of egg lecithin, 0.5% (w/v) of cholesterol and dodecane (all purchased from Fluka) was added to a Millipore 96-well membrane filter (hydrophobic PVDF (polyvinylidene difluoride), pore size 0.45 microm) (purchased from Millipore Japan) to make an artificial phospholipid membrane.
A DMSO solution containing the compound at a concentration of 10 mM was added in a percentage of 0.5% (v/v) to a 50 mM MOPSO buffer, pH 6.5, containing 5.0% (w/v) of glycocholic acid, and 330 μL of the mixture was added to a 96-well plate made of Teflon (donor plate). The above artificial phospholipid membrane plate was attached onto the donor plate, and 280 μL of a solution obtained by adding DMSO in a percentage of 0.5% (v/v) to a 50 mM MOPSO buffer, pH 6.5, containing 5.0% (w/w) of glycocholic acid was added onto the artificial phospholipid membrane (acceptor plate). These plates were allowed to stand at 37° C. for 18 hours, after which the concentrations of the compound in the solutions in the donor plate and the acceptor plate were measured by LC/MS or LC/UV, and the membrane permeation rate of the compound (Pe) was calculated by the following formulas (1) and (2), where t is the testing time, A is the membrane filter area, VD is the amount of the donor solution, VA is the amount of the acceptor solution, CD,t is the concentration of the compound in the donor solution at the time t, and CA,t is the concentration of the compound in the acceptor solution at the time t.

Compared with `CC(C)C[C@@H]1NC(=O)[C@H](CC(C)C)N(C)C(=O)[C@H](C)N(C)C(=O)C[C@@H](C(=O)N(C)[C@@H](Cc2ccccc2)C(=O)N[C@@H](C)C(=O)N2CCCCC2)NC(=O)[C@H]([C@@H](C)O)NC(=O)[C@H](CC(C)C)N(C)C(=O)[C@H](Cc2ccccc2)NC(=O)[C@H](Cc2ccccc2)N(C)C(=O)[C@H](CC(C)C)N(C)C1=O` [DP-387] ([NMeA][NMeL]L[NMeL][NMeF]F[NMeL]TD[NMeF]A-Piperidide; lactam N-9), `CC[C@H](C)[C@@H]1NC(=O)[C@H](CC(C)C)N(C)C(=O)[C@H](CC(C)C)N(C)C(=O)[C@H](C)N(C)C(=O)[C@H]([C@@H](C)O)NC(=O)[C@H](Cc2ccccc2)N(C)C(=O)[C@@H](C)N(C)C(=O)C[C@@H](C(=O)N(C)[C@@H](Cc2ccccc2)C(=O)N(C)[C@@H](Cc2ccccc2)C(=O)N[C@@H](C)C(=O)N2CCCCC2)NC(=O)[C@H](C(C)C)N(C)C1=O` [DP-399] ([dNMeA][NMeF]T[NMeA][NMeL][NMeL]I[NMeV]D[NMeF][NMeF]A-Piperidide; lactam N-9) is 3.1-fold lower in Papp at 18 hours, 50 µM: 2.8 ×10⁻⁶ cm/s for the first, 0.89 ×10⁻⁶ cm/s for the second.

Compared with `CC(C)[C@@H]1NC(=O)[C@H](Cc2ccccc2)N(C)C(=O)[C@H](C)N(C)C(=O)[C@H]([C@@H](C)O)NC(=O)CNC(=O)[C@H](C)N(C)C(=O)[C@H](Cc2ccccc2)NC(=O)[C@H](C)N(C)C(=O)C[C@@H](C(=O)N(C)[C@@H](Cc2ccccc2)C(=O)N(C)[C@@H](Cc2ccccc2)C(=O)N[C@@H](C)C(=O)N2CCCCC2)NC(=O)[C@H](C(C)C)N(C)C1=O` [DP-393] ([NMeA]F[NMeA]GT[NMeA][NMeF]V[NMeV]D[NMeF][NMeF]A-Piperidide; lactam N-10), `CC[C@H](C)[C@@H]1NC(=O)[C@H](C)N(C)C(=O)[C@H]([C@@H](C)O)NC(=O)[C@H](CC(C)C)N(C)C(=O)[C@H](Cc2ccccc2)N(C)C(=O)[C@H](C)N(C)C(=O)[C@@H](C(C)C)NC(=O)C[C@@H](C(=O)N(C)[C@@H](Cc2ccccc2)C(=O)N(C)[C@@H](Cc2ccccc2)C(=O)N[C@@H](C)C(=O)N2CCCCC2)NC(=O)[C@H](C(C)C)N(C)C(=O)[C@H](CC(C)C)N(C)C1=O` [DP-510] ([dV][NMeA][NMeF][NMeL]T[NMeA]I[NMeL][NMeV]D[NMeF][NMeF]A-Piperidide; lactam N-10) is 8.2-fold lower in Papp at 18 hours, 50 µM: 18 ×10⁻⁶ cm/s for the first, 2.2 ×10⁻⁶ cm/s for the second.

First: CC[C@H](C)[C@@H]1NC(=O)[C@H](Cc2ccccc2)N(C)C(=O)[C@H](C)N(C)C(=O)[C@H](CC(C)C)N(C)C(=O)[C@H](Cc2ccccc2)N(C)C(=O)CCN(C)C(=O)C[C@@H](C(=O)N(C)[C@@H](Cc2ccccc2)C(=O)N(C)[C@@H](Cc2ccccc2)C(=O)N[C@@H](C)C(=O)N2CCCCC2)NC(=O)[C@H]([C@@H](C)O)NC(=O)[C@H](CC(C)C)N(C)C(=O)[C@H](CC(C)C)N(C)C1=O [DP-499] ([NMeβAla][NMeF][NMeL][NMeA][NMeF]I[NMeL][NMeL]TD[NMeF][NMeF]A-Piperidide; lactam N-10)
Second: CC[C@H](C)[C@H](NC(=O)[C@H](C)N(C)C(=O)[C@@H](NC(=O)[C@H](Cc1ccccc1)N(C)C(=O)[C@H](CC(C)C)N(C)C(=O)[C@@H]1CC(=O)N[C@H](C)C(=O)N[C@@H](C(C)C)C(=O)N(C)[C@@H](Cc2ccccc2)C(=O)N(C)[C@@H](CC(C)C)C(=O)N(C)[C@@H](C)C(=O)N[C@@H]([C@@H](C)O)C(=O)N[C@@H](Cc2ccccc2)C(=O)N1)C(C)C)C(=O)N1CCCCC1 [DP-570] ([dA]V[NMeF][NMeL][NMeA]TFD[NMeL][NMeF]V[NMeA]I-Piperidide; lactam N-8)
The Papp at 18 hours, 50 µM of the first is 6.8-fold lower: 0.31 ×10⁻⁶ cm/s for the first, 2.1 ×10⁻⁶ cm/s for the second.

Same assay, conditions: membrane permeation rate (Pe); 50 mM MOPSO buffer pH 6.5 with 5.0% glycocholic acid, 37° C., 18 hours

In the case of `CC[C@H](C)[C@H]1C(=O)N[C@@H](C(C)C)C(=O)N(C)[C@@H](Cc2ccccc2)C(=O)N[C@@H](CC(C)C)C(=O)N(C)[C@@H](Cc2ccccc2)C(=O)N[C@H](C(=O)N(C)[C@@H](Cc2ccccc2)C(=O)N[C@@H](C)C(=O)N[C@H](C(=O)N[C@@H](Cc2ccccc2)C(=O)N2CCCCC2)[C@@H](C)O)CC(=O)N[C@@H](C)C(=O)N[C@@H](CC(C)C)C(=O)N1C` [DP-572] (AL[NMeI]V[NMeF]L[NMeF]D[NMeF]ATF-Piperidide; lactam N-8), the “iPAMPA Pe” value is reported as 1.0E−07.
